Laboratory results taken from paper PMC12112966 (2025).

Tests used:
Test in all cases: BLI, immobilised aptamer
[1] = test system: JD-1 (DNA, aptamer) GAATGGACCCGGTATAATTCCCTCAAGAGTGCCAATTTCA; conditions: 2.7 mM KCl, 1.5 mM KH2PO4, 0.1 M NaCl, 20 mM Na2HPO4, 0.6 mM MgCl2, 0.9 mM CaCl2; selection buffer, pH 7.4; BLI response below 0.1 nm
[2] = test system: JD-2 (DNA, aptamer) AAAAGACTTAGTGTTGTCCTATGTATAAGTGCCAATTTCA; conditions: 2.7 mM KCl, 1.5 mM KH2PO4, 0.1 M NaCl, 20 mM Na2HPO4, 0.6 mM MgCl2, 0.9 mM CaCl2; selection buffer, pH 7.4; BLI response below 0.1 nm
[3] = test system: JD2-RM3-27C28T (DNA, aptamer) AAAAGACTTAGTGTTGTCCTATGTATCT; conditions: 2.7 mM KCl, 1.5 mM KH2PO4, 0.1 M NaCl, 20 mM Na2HPO4, 0.6 mM MgCl2, 0.9 mM CaCl2; selection buffer, pH 7.4; same concentration as AZA-2
[4] = test system: JD-3 (DNA, aptamer) ACTAGTGCAAATCTATTCCTATGTTACAGTGCCAATTTCA; conditions: 2.7 mM KCl, 1.5 mM KH2PO4, 0.1 M NaCl, 20 mM Na2HPO4, 0.6 mM MgCl2, 0.9 mM CaCl2; selection buffer, pH 7.4; BLI response below 0.1 nm
[5] = test system: JD3-RMM1 (DNA, aptamer) ACTAGGGCAAATCTATACAGTGCCAATTTCA; conditions: 2.7 mM KCl, 1.5 mM KH2PO4, 0.1 M NaCl, 20 mM Na2HPO4, 0.6 mM MgCl2, 0.9 mM CaCl2; selection buffer, pH 7.4; same concentration as AZA-2

Measured: binding

C=C1[C@@H](O)[C@@H]2O[C@]3(CC[C@H](/C=C/[C@@H](C)[C@@H]4CC(C)=C[C@@]5(O[C@H](C[C@@](C)(O)C(=O)O)CC[C@H]5O)O4)O3)CC[C@H]2O[C@@H]1[C@@H](O)C[C@H](C)[C@H]1O[C@@]2(CCCCO2)CC[C@H]1C
no: all assays above
